From patent US7959956B2, “Method for treating diabetic complications” (Korea Institute of Oriental Medicine, Ltd., priority 2004, dated 2011)
One block for each molecule: values may come before it.

Tests used:
[1] = tested on: production of advanced glycation endproducts (bovine serum albumin + sugar mixture); assay: Inhibition of production of advanced glycation endproducts (BSA + fructose/glucose, fluorescence); assay type: biochemical
Protocol: As a protein source, bovine serum albumin (hereinafter, referred to as “BSA”; Sigma, USA) was used. BSA was dissolved in 50 mM phosphate buffer (pH 7.4) to a concentration of 10 mg/ml.
As a sugar source, a mixture of 0.1 M fructose and 0.1 M glucose was used.
This sugar mixture was added to the prepared BSA solution, for use in tests.
The herbal extract mixture prepared in Example 2 was dissolved in 15% Tween80, and this solution was added to the BSA-sugar mixture and cultured at 37° C. for 30 days. At this time, 0.02% sodium azide was used as an antibacterial agent.
As a control group, a culture consisting of BSA and the sugar mixture was cultured, and as blanks to the control and test groups, the materials for the test group and the materials for the control group were used after preparation without incubation.
In order to reduce errors to the lowest possible extent, 4 samples for each group were used. Just before culturing, the samples were filled with nitrogen gas (99.999% purity) in order to prevent them being contaminated. After 30 days, the content of advanced glycation endproducts in the culture media was analyzed. The advanced glycation endproducts are fluorescent, show a brown color, are crosslinkable, and have ligands which can be recognized by cellular membrane receptors. The amount of the advanced glycation endproducts with such properties was measured with a spectrophotometer (excitation at 350 nm and release at 450 nm) so as to determine the inhibition of production of the advanced glycation endproducts.
The inhibition (%) of production of advanced glycation endproducts was calculated according to the following equation: Inhibition (%) of production=100−[(fluorescent intensity of test group−fluorescent intensity of blank to test group)/(fluorescent intensity of control group−fluorescent intensity of blank to control group)]×100
The part (1) of this Example was repeated except that extract from each of Euphorbiae radix, gingered Magnolia bark, parched Puerariae radix and Glycyrrhizae radix was dissolved in 15% Tween80 and cultured for 90 days.
Magnolol was dissolved in distilled water at concentrations of 3.33 μg/ml, 6.66 μg/ml, 13.32 μg/ml and 26.6 μg/ml, and then cultured for 37° C. for 30 days in the same manner as in the above part (1).
aminoguanidine, a positive control group, was tested in the same manner as in the above part (1) except that aminoguanidine was dissolved in distilled water at selected concentrations and cultured for 30 days and 90 days.

[2] = tested on: streptozotocin diabetes-induced SD rats; assay: Streptozotocin diabetic rats: body weight, feed and water intake; assay type: in vivo, rat
Excerpt: Four-week-old SD male rats weighing 120-140 g were housed in cages at one animal for each cage and allowed for access to general solid food and water while adapting the animals to an animal room of this institute (the applicant).
(§1) The test animals were divided into the following four groups: (1) a normal group administered with carboxymethyl cellulose (NC+CMC); (2) a diabetes-induced group administered with carboxymethylcellulose (DC+CMC); (3) a diabetes-induced group administered with the herbal extract mixture (DC+HMP); (4) and a diabetes-induced group administered with a positive control (Eparlestat) (DC+S11). The diabetes-induced groups each consisted of 9-10 animals, and the normal group consisted of 5-6 animals. The body weights of the animals were similar between the test groups.
(§2) The test animals were adapted to the animal room and then fasted overnight. Streptozotocin was dissolved in 0.1 M citrate buffer (pH 4.5), and just then, injected into the abdominal cavities of the fasted animals at a dose of 60 mg/kg. At 2 days after administering the streptozotocin solution, tail vein blood was sampled from the animals and examined for blood glucose level. Rats having a blood glucose level of more than […] were determined to be diabetes-induced rats.
To examine a therapeutic effect against chronic diabetic complications, the rats was continued to maintain in diabetic conditions for 30 days. From day 31, the rats were administered with the drugs for 8 weeks.
Since the herbal extract mixture (HMP) and Epalrestat (S11) used in the tests are insoluble in water, they were dissolved in 1% carboxymethylcellulose before use. The normal group was administered with carboxylmethylcellulose so as to eliminate an effect caused by carboxylmethylcellulose.
(§3) For the two diabetes-induced groups other than the normal group, each of 1 g/kg of the herbal extract mixture (HMP) and 25 mg/kg of Epalrestat (S11) was dissolved in 1% CMC and administered orally to the rats by a sonde daily for 8 weeks.
After administering the samples during the administration period, the test animals were fasted for at least 15 hours at one day before autopsy, and then measured for body weight.
The body weight was measured every day, the feed intake was measured one time a week, and the water intake was measured every day.

[3] = tested on: streptozotocin diabetes-induced SD rats; assay: Streptozotocin diabetic rats: anti-cataract effect (eye lens opacity); assay type: in vivo, rat; conditions: for Eye lens's opacity (%): mean
Excerpt: as §1, §2, §3
From the eyeballs removed under a microscope, the eye lenses were separated and transferred onto 24-well plates each containing 2 ml of a saline solution. Then, the eye lenses were photographed with a digital camera. The opacity of the eye lenses was analyzed by the use of an imaging system program.
The eye lenses were photographed with a camera and measured for weight. Then, the eye lenses were placed in phosphate buffer (pH 6.9) and homogenized at 4° C. For use in the measurement of enzymatic activity, some of the homogenized solution was centrifuged at 3,000 rpm for 20 minutes, and the supernatant was collected and stored at −80° C. For use in the measurement of content of sorbitol, etc., the remaining homogenized solution was added with ZnSO4 and NaOH so as to remove protein, and centrifuged at 3,000 rpm for 20 minutes, and the supernatant was collected and stored at −80° C.
The results of visual observation for the eyeballs are shown in FIG. 9, and the results of camera observation for the eye lenses are shown in FIG. 10.

[4] = tested on: streptozotocin diabetes-induced SD rats; assay: Streptozotocin diabetic rats: organ weight; assay type: in vivo, rat; conditions: oral daily 8 weeks
Excerpt: as §1, §2, §3
One day before autopsy, the test animals were fasted for at least 15 hours and then measured for body weight. Then, the animals were anesthetized with ethyl ether, from which blood was collected via the abdominal aorta. Some of the collected blood was treated with heparin, and some of whole blood was centrifuged at 3,000 rpm and 4° C. for 15 minutes. From each of the blood samples, plasma was isolated and stored at −80° C. before use in data analysis.
The kidneys of the animals were removed after washing by perfusion and measured for weight. Next, the kidneys were separated into cortex and medulla, which were rapidly cooled and stored at −80° C. In addition, the liver, lungs, pancreas, spleen and heart were separated and measured for weight.

[5] = tested on: streptozotocin diabetes-induced SD rats; assay: Streptozotocin diabetic rats: biochemical factors in serum; assay type: in vivo, rat; conditions: oral daily 8 weeks; for Glucose level: plasma
Excerpt: as §1, §2, §3
At two-week intervals up to before autopsy, blood was taken from the orbital veins and measured for plasma glucose level with a glucose kit. The plasma glucose level was measured at 500 nm UV by a glucose oxidase method.
BUN was determined by measuring absorbance at 580 nm by a urease-indophenol method.
Triglyceride content was quantified by measuring absorbance at 550 nm by an enzymatic method (POD).
Total cholesterol level was determined by measuring absorbance at 500 nm by an enzymatic method.
Creatinine was determined by measuring absorbance at 515 nm by a modified Jaffe's method.
Protein in serum was determined by BCA assay. Serum was reacted with a bicinchonicic acid solution of bicinchonicic acid, Na2CO3, NaHCO3 and C4H4O6Na2.2H2O in 0.1N NaOH and a 4% CuSO4.5H2O solution and then measured for absorbance at 562 nm.

[6] = diabetes-induced rats, oral daily 8 weeks

Inhibition (%) of production of advanced glycation endproducts ([1]; bovine, 30 days, 27.5 μg/ml, pH 7.4): 45.78 ± 2.400%
Inhibition (%) of production of advanced glycation endproducts ([1]; bovine, 30 days, 55 μg/ml, pH 7.4): 55.43 ± 4.000%
Inhibition (%) of production of advanced glycation endproducts ([1]; bovine, 30 days, 110 μg/ml, pH 7.4): 73.52 ± 1.750%
Inhibition (%) of production of advanced glycation endproducts ([1]; bovine, 30 days, 550 μg/ml, pH 7.4): 96.41 ± 2.200%
IC50 (μg/ml), inhibition of production of advanced glycation endproducts ([1]; bovine, 30 days, pH 7.4): 34.90 µg/mL
Inhibition (%) of production of advanced glycation endproducts ([1]; bovine, 90 days, 27.5 μg/ml, pH 7.4): 39.647 ± 3.406%
Inhibition (%) of production of advanced glycation endproducts ([1]; bovine, 90 days, 110 μg/ml, pH 7.4): 65.714 ± 5.394%
IC50 (μg/ml), inhibition of production of advanced glycation endproducts ([1]; bovine, 90 days, pH 7.4): 30.80 µg/mL
Structure (SMILES): N=C(N)NN [Aminoguanidine, aminoguanidine]

Structure (SMILES): CC(/C=C1\SC(=S)N(CC(=O)O)C1=O)=C\c1ccccc1 [Epalrestat (S11)]
Feed intake compared to diabetes-induced group ([2]; oral daily 8 weeks): more feed than that of the diabetes-induced group
Water intake compared to diabetes-induced group ([2]; oral daily 8 weeks): more water than that of the diabetes-induced group
Increase in body weight ([2]; oral daily 8 weeks (HMP 1 g/kg, S11 25 mg/kg)): 129.21 g
Eye lens's opacity (%) [3, 6]: 37.38±13.56%
Animals with cataract symptoms in both eyeballs on the day of autopsy ([3]; visual observation of eyeballs, FIG. 9): four of seven

Structure (SMILES): CC(/C=C1\SC(=S)N(CC(=O)O)C1=O)=C\c1ccccc1 [Epalrestat]
Body weight, early stage ([2]; oral daily 8 weeks (HMP 1 g/kg, S11 25 mg/kg), early stage): 154.03 ± 45.46 g
Body weight, end stage ([2]; oral daily 8 weeks (HMP 1 g/kg, S11 25 mg/kg), end stage): 283.24 ± 42.60 g
Heart absolute weight [4]: 0.95 ± 0.11 g
Heart relative weight (%) [4]: 0.34 ± 0.03 %
Kidneys absolute weight [4]: 3.18 ± 0.30 g
Kidneys relative weight (%) [4]: 1.14 ± 0.11 %
Liver absolute weight [4]: 11.63 ± 1.08 g
Liver relative weight (%) [4]: 4.15 ± 0.40 %
Lungs absolute weight [4]: 1.55 ± 0.13 g
Lungs relative weight (%) [4]: 0.55 ± 0.06 %
Pancreas absolute weight [4]: 0.86 ± 0.11 g
Pancreas relative weight (%) [4]: 0.31 ± 0.05 %
Spleen absolute weight [4]: 0.54 ± 0.09 g
Spleen relative weight (%) [4]: 0.19 ± 0.02%
BUN [5]: 23.60 ± 5.15 mg/dL
Creatinin [5]: 1.22 ± 0.16 mg/dL
Total cholesterol [5]: 59.50 ± 13.88 mg/dL
Triglyceride [5]: 46.18 ± 8.26 mg/dL
Glucose level [5]: 197.94 mg/dL
Glucose level ([5]; listed as S11): 197.94 ± 76.66 mg/dL
Protein ([5]; serum, BCA assay): 10.79 ± 0.85 µg/µL
Eye lens's opacity (20 pixels/m^2) [3, 6]: 134.04 ± 45.00 20 pixels/m^2
Eye lens's opacity (%) ([3]; diabetes-induced rats, oral daily 8 weeks, listed as S11): 37.38 ± 13.56 %

Structure (SMILES): C=CCc1ccc(O)c(-c2cc(CC=C)ccc2O)c1 [Magnolol, magnolol]
Inhibition (%) of production of advanced glycation endproducts ([1]; 3.33 μg/ml, cultured for 30 days): 36.36 ± 1.61%
Inhibition (%) of production of advanced glycation endproducts ([1]; 6.66 μg/ml, cultured for 30 days): 55.75 ± 2.11%
Inhibition (%) of production of advanced glycation endproducts ([1]; 13.32 μg/ml, cultured for 30 days): 77.05 ± 1.70%
Inhibition (%) of production of advanced glycation endproducts ([1]; 26.64 μg/ml, cultured for 30 days): 100%
IC50 (μg/ml), inhibition of production of advanced glycation endproducts ([1]; cultured for 30 days, 37° C.): 5.36 µg/mL
